Test results: patent publication US8691534B2, “Preparation of romidepsin” (Celgene Corporation, priority 2006, dated 2014)

Assay: pH-dependent stability of romidepsin in solution during production, purification and storage
Assay type: physicochemical
Source text: Based on this recognition, the present invention provides a system for reproducibly preparing romidepsin under conditions that reduce the levels of these contaminating side products. […] This improvement in the purification process of romidepsin allows for higher yields of romidepsin and/or higher purity romidepsin than that provided by known processes. Such an improvement is particularly useful for preparing pharmaceutical grade romidepsin for use in humans.
Romidepsin is a cyclic depsipeptide having a disulfide bond. […] Such adducts are typically insoluble and difficult to remove from purified romidepsin. In certain embodiments, such contaminating adducts prevent a preparation of romidepsin from meeting the desired specifications (e.g., solubility, degree of purity, optical rotation, etc.). In pharmaceutical compositions, these adducts decrease the purity of the active agent, romidepsin. Since romidepsin is being used as a pharmaceutical agent in humans, it is important that pure, stable, monomeric romidepsin be reproducibly obtained from a fermentation of Chromobacterium violaceum. The present invention stems from the recognition that alkaline conditions cause the formation of these undesired romidepsin adducts and provides a novel solution to this problem.

C/C=C1\NC(=O)[C@H]2CSSCC/C=C/[C@H](CC(=O)N[C@H](C(C)C)C(=O)N2)OC(=O)[C@H](C(C)C)NC1=O [Romidepsin, (1S,4S,10S,16E,21R)-7-[(2Z)-ethylidene]-4,21-diisopropyl-2-oxa-12,13-dithia-5,8,20,23-tetraazabicyclo[8.7.6]tricos-16-ene-3,6,9,19,22-pentanone]
reduction of the disulfide bond (basic conditions, e.g. greater than an apparent pH of ~7): facilitates the reduction of this disulfide bond | formation of dimerized, oligomerized, or polymerized romidepsin (producing, purifying and/or storing at an apparent pH less than approximately 6.5, more preferably less than approximately 6.0): prevent the formation of dimerized, oligomerized, or polymerized romidepsin
